The record followed here is patent publication US20250204541A1, “GAS PHASE TREATMENT OF PRODUCE” (priority 2022, published 2025).

Format in all cases: in vivo
For data set [1], the system named is avocados. On the procedure:
Example 11. The ripening characteristics of avocados exposed to AITC vapor was analyzed. Treatment groups consisted of avocados that were: exposed to the vapor of 125 μL of AITC in a Petri dish for 30 min and 18 hours; exposed to the vapor of 500 μL of AITC for 30 minutes and 18 hours; untreated and kept 18 hours in a bin; and treated with a coating agent. Two sets of the preceding test groups were studied. One set was treated when cold along with coated fruit (i.e., fruit treated with a coating agent (95 wt % glyceryl monostearate and 5 wt % sodium stearate) and another set was treated when warm (one day out of cold storage). Daily measurements were made of respiration and firmness (using a durometer). At the start of the test, the avocados were placed in cold storage. After one day, the cold treated avocados were treated with AITC directly after removal from cold storage. The coated group was treated at this time. The warm treated avocados were allowed to warm to room temperature. On the second day, measurements were begun on the cold treated avocados and AITC treatments began on the warm treated samples. On the third day, measurements began on the warm treated groups. […]
Example 23: The ripening characteristics of avocados exposed to AITC vapor, a coating agent (95 wt % glyceryl monostearate and 5 wt % sodium stearate), and AITC plus the coating agent was analyzed. […]

For another data set, the system named is Botrytis cinerea (Bc). As to the kind of experiment: Antifungal activity of AITC vapor against Botrytis cinerea in strawberries. As to conditions: Example 17; suspended strawberries; coating agent 50 g/L dip; AITC 125 μL 30 minutes; by day 5.
The subject of data set [2] is avocados. As to the kind of experiment: Durometer shore (ripening/firmness) of treated avocados. As to conditions: for average increase of durometer shore over the uninfected and untreated avocados: Example 22. On the procedure:
Example 9. The antifungal activity of a range of AITC and carvacrol vapor exposure times was tested against Cg in avocados. To measure the effect of the various treatments on ripening, durometer shore was taken after 7 days of incubation at ambient temperature and high humidity. All samples were wounded by removing the stem and infected by dispensing 1000 Cg spores suspended in 10 μL of water in the wound. The test groups consisted of avocados that were: infected and left untreated on the benchtop; infected and left untreated under a fume hood; exposed to the vapor of 3 mL of AITC in a Petri dish for 24 hours, 48 hours, and 72 hours; and exposed to the vapor of 3 mL of carvacrol in a Petri dish for 72 hours. FIG. 11 quantifies the infection results. […] All exposure times to AITC vapor reduced the incidence of Cg mold compared to the untreated samples. A 24 hour AITC exposure reduced the incidence of Cg mold by 90%. A 48 hour AITC exposure reduced the incidence of Cg mold by 97%. A 72 hour AITC exposure reduced the incidence of Cg mold by 83%.
Example 10. The antifungal activity of a range of AITC vapor exposure times were tested against Cg in avocados. To measure the effect of the various treatments on ripening, durometer shore was taken after 6 days of incubation at ambient temperature and high humidity. All samples were wounded by removing the stem and infected by dispensing 1000 Cg spores suspended in 10 μL of water in each wound. The test groups consisted of avocados that were: infected and left untreated on the benchtop; infected and left untreated in a fume hood; exposed to the vapor of 3 mL of AITC in a Petri dish for 24 hours, 48 hours, and 72 hours. FIG. 13 quantifies the infection results. […] All exposure times to AITC vapor reduced the incidence of Cg mold compared to the untreated samples.
Example 21. The antifungal activity of avocados exposed to AITC vapor and prochloraz was tested against Cg in avocados. To measure the effect of the various treatments on ripening, durometer shore was taken after 5 days of incubation at ambient temperature (about 20° C. to about 25° C.) and high humidity (about 88% relative humidity to about 93% relative humidity). All samples were wounded by removing the stem and infected by dispensing 1000 Cg spores suspended in 10 μL of water in the wound. Exposure to vapor was done by placing the avocados in an airtight container, dispensing AITC onto Whatman filter paper discs, suspending the discs in front of a battery-powered fan, closing the container and incubating the avocados for 30 minutes. After vapor exposure, the avocados were left at ambient temperature, high humidity, and assessed for Cg mold on day 5. Treatment groups consisted of avocados that were: exposed for 30 minutes to the vapor of 125 μL of AITC disposed on a filter paper disc; dipped in a solution of 0.1 g/L of prochloraz and placed to dry on a rack in front of a fan for 30 min; infected and left untreated; and uninfected and untreated. […] To prepare the 0.1 g/L of prochloraz, 10 mg of prochloraz was mixed with 10 mL of ethanol and 90 mL of water. […] A 24 hour AITC exposure reduced the incidence of Cg mold by 90%. […] The mean shore value for the untreated avocados was 28.8 (standard deviation (SD)=10.8). The mean shore value for the infected avocados was 47.3 (SD=11.8). The mean shore value of the positive control, prochloraz treated avocados was 44.3 (SD=14.7). The mean shore value of the AITC treated avocados was 61.1 (SD=10.5).
Durometer Shore Measurement: A Fruit Hardness Tester—HPE III Fff w/Sphere Ø 5.0 mm Test Anvil is used for the measurements. The Operating Procedure is as follows: • 1) At room temperature and 1 atm pressure, switch on the measuring device and press the hull or sleeve against the specimen so that the contact surface of the pressure plate rests on the fruit. […]

Turning to `C=CCN=C=S` [AITC, allyl isothiocyanate], the “quality and defects of treated avocados” value in the data set on avocados [1] (Example 23, avocados, vapor of 500 μL, 11 days of incubation) was “higher quality and had fewer defects than the untreated avocados and the avocados treated with the coating agent alone”. Besides, the “effect on avocado peel and firmness” value with avocados [1] (in vivo) is “darkening and thickening of the avocado peel and a prolonged feeling a firmness”. The “reduction in incidence of mold versus the untreated test group” value with Botrytis cinerea (Bc) is “over 80%”. In addition, the “average increase of durometer shore over the untreated avocados” value with avocados [2] (Example 9, Cg-infected avocados, all AITC treatments (3 mL, 24, 48, 72 hours), after 7 days, P value<0.0001) was 20.3 shore; in the data set with avocados [2] (Example 23, avocados, after 11 days, coating agent 40 g/L dip, AITC vapor of 500 μL, P value<0.0001), 22.5 shore. Further, the “average increase of durometer shore over the infected avocados” value with avocados [2] (Example 10, Cg-infected avocados, all AITC treatments (3 mL, 24, 48, 72 hours), after 6 days, P value<0.005) was found to be 15.4 shore. Also, the “higher durometer shore than the untreated avocados” value in the data set with avocados [2] (Example 21, Cg-infected avocados, 125 μL, 30 minutes, after 5 days) is recorded as “more than 30 shore”. For the same molecule, the mean shore value in the data set with avocados [2] (Example 21, Cg-infected avocados, after 5 days, AITC 125 μL vapor 30 minutes, prochloraz 0.1 g/L dip) is 61.1 (SD=10.5) shore. Besides, the “average increase of durometer shore over the uninfected and untreated avocados” value in the data set with avocados [2] (Cg-infected avocados, 250 μL, 30 minutes, after 5 days, P value=0.0016) is on record as “about 10 shore”; in the data set with avocados [2] (Cg-infected avocados, 500 μL, 30 minutes, after 5 days, P value<0.0001), “about 28.5 shore”.
